# Source: EP4768479A1 (Hubei Bio-Pharmaceutical Industrial Technological Institute …, priority 2023, dated 2025)
# Molecular target: T1, AT2R (Homo sapiens, UniProt P50052)
# T1 construct: purchased Cisbio #C1TT1AT2
# T1 sequence (P50052 1-363): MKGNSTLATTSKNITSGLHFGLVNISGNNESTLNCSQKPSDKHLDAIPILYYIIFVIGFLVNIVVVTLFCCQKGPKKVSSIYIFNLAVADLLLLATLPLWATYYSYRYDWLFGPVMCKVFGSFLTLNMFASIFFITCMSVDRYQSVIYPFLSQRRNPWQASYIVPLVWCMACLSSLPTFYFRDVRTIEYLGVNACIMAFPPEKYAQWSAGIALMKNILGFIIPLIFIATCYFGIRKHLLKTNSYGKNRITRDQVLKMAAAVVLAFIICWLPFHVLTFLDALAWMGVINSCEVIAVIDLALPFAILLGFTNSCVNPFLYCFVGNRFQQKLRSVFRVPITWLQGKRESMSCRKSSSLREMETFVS
# Experiment: Binding assay of compounds to AT2R (Tag-lite HTRF ligand binding kit)
# Method: The assay was performed in accordance with the manufacturer instructions of Angiotensin AT2 Receptor Ligand Binding Assay Kit (#C1TT1AT2, Cisbio). First, a 10 mM compound stock solution was diluted in a gradient at a 5× dilution ratio (including 10 concentrations, each with two replicates). 160 nL of compounds at different concentrations was added to a 384-well plate. 40 µL of 1× TLB (TLB: Tag-lite buffer) was added to each well, and the mixture was shaken at room temperature for 15 minutes. A 15 mL centrifuge tube added with 5 mL of 1×TLB was prepared in advance. The frozen labeled cells were thawed in a water bath at 37°C (for 1 to 2 minutes), and the thawed cells were quickly transferred to the above 15 mL centrifuge tube. The mixture was mixed well and centrifuged at 1,000 g at room temperature for 5 minutes. The supernatant was removed, and the cells were resuspended by adding 2.7 mL 1× TLB. A new 384-well plate was taken, and 10 µL of mixed cells were added into the corresponding wells according to the assay design. 5 µL of 4× compound solution and 5 µL of 4× Tag-lite red fluorescent labeled ligand were added to each well. After incubation at room temperature for 1 hour, data were read using EnVision with an HTRF mode. The […] at 665nM and 615nM in each well were read respectively, and the ratio was calculated (Ratio=A665nM/B615nM). The IC50 value was calculated by means of GraphPad Prism8 software, where X represents logarithmic value of compound concentration; and Y represents ratio of A665nM/B615nM.
row,Compound,IC50 [nM]
1,"COC(=O)NS(=O)(=O)c1sc(CC(C)C)c(F)c1-c1ccc(Cn2ccnc2Cl)cc1 [Compound I-1, Methyl ((3-(4-((2-chloro-1H-imidazol-1-yl)methyl)phenyl)-4-fluoro-5-isobutylthiophen-2-yl)sulfonyl) carbamate]",6.67
2,"COC(=O)NS(=O)(=O)c1sc(CC(C)C)c(F)c1-c1ccc(Cn2ccnc2C(F)(F)F)cc1 [Compound I-2, Methyl ((4-fluoro-5-isobutyl-3-(4-((2-(trifluoromethyl)-1H-imidazol-1-yl)methyl)phenyl)thiophen-2-yl)sulfonyl) carbamate]",6.56
3,"Cc1c(CC(C)C)sc(S(=O)(=O)NC(=O)OC[C@H](C)O)c1-c1ccc(Cn2ccnc2C(F)(F)F)cc1 [Compound I-11, (2S)-2-hydroxypropyl ((5-isobutyl-4-methyl-3-(4-((2-(trifluoromethyl)-1H-imidazol-1-yl)methyl)phenyl)thiophen-2-yl)sulfonyl)carbamate]",4.49
4,"Cc1c(CC(C)C)sc(S(=O)(=O)NC(=O)OC[C@H](C)O)c1-c1ccc(Cn2ccnc2Cl)cc1 [Compound I-16, (2S)-2-hydroxypropyl ((3-(4-((2-chloro-1H-imidazol-1-yl)methyl)phenyl)-4-methyl-5-isobutylthiophen-2-yl)sulfonyl)carbamate]",4.49
5,"Cc1c(CC(C)C)sc(S(=O)(=O)NC(=O)OC[C@@H](C)O)c1-c1ccc(Cn2ccnc2Cl)cc1 [Compound I-17, (2R)-2-hydroxypropyl ((3-(4-((2-chloro-1H-imidazol-1-yl)methyl)phenyl)-4-methyl-5-isobutylthiophen-2-yl)sulfonyl)carbamate]",3.88
6,Cc1c(CC(C)C)sc(S(=O)(=O)NC(=O)NCc2ccccn2)c1-c1ccc(Cn2ccnc2C(F)(F)F)cc1 [Compound I-24],4.41

# Continued, values first:
row,IC50 [nM],Compound
1,3.21,"CCCCOC(=O)NS(=O)(=O)c1sc(CC(C)C)c(F)c1-c1ccc(Cn2ccnc2C(C)(C)O)cc1 [Compound I-3, Butyl ((4-fluoro-3-(4-((2-(2-hydroxypropan-2-yl)-1H-imidazol-1-yl)methyl)phenyl)-5-isobutylthiophen-2-yl)sulfonyl)carbamate]"
2,3.46,"CCCCOC(=O)NS(=O)(=O)c1sc(CC(C)C)c(F)c1-c1ccc(Cn2ccnc2C(F)(F)F)cc1 [Compound I-4, Butyl ((4-fluoro-5-isobutyl-3-(4-((2-(trifluoromethyl)-1H-imidazol-1-yl)methyl)phenyl)thiophen-2-yl)sulfonyl)carbamate]"
3,3.88,"Cc1c(CC(C)C)sc(S(=O)(=O)NC(=O)OC[C@@H](C)O)c1-c1ccc(Cn2ccnc2C(F)(F)F)cc1 [Compound I-12, (2R)-2-hydroxypropyl ((5-isobutyl-4-methyl-3-(4-((2-(trifluoromethyl)-1H-imidazol-1-yl)methyl)phenyl)thiophen-2-yl)sulfonyl)carbamate]"
4,3.52,"Cc1c(CC(C)C)sc(S(=O)(=O)NC(=O)OCCO)c1-c1ccc(Cn2ccnc2Cl)cc1 [Compound I-18, 2-hydroxyethyl ((3-(4-((2-chloro-1H-imidazol-1-yl)methyl)phenyl)-5-isobutyl-4-methylthiophen-2-yl)sulfonyl)carbamate]"
